Where two headings read alike, the source gives them in different places. A value given as a limit tells only on which side of the number the result lay.

Assay [1] deals with Cluster Headache (also called Horton headache). Conditions: person. Here is the method: The patient was evaluated with Cluster Headache Quality of Life (CHQ) scale before starting the treatment and every 15 days after starting the treatment which started in December 2016. The score of this scale ranges from 28 (absence of symptoms) to 140 (maximum deficit, maximum negative influence in daily life activities).
The patient started the therapy with 250 mg of thiamine orally, by increasing by 250 mg every three days.

The test system of assay [2] is Progressive Supranuclear Paralysis. Conditions: for Improvement of motor symptoms: UPDRS portion III, two months of therapy; for UPDRS portion III after therapy: five 100 mg/ml vials intramuscularly per week plus low doses of other group b vitamins and magnesium, two months, scale 0-56. As for the experimental part:
We treated […] affected by such pathology, two women and two men with five vials intramuscularly per week of vitamin B1. A vial included 100 mg/ml of thiamine. The injection was performed each morning for the first five days of the week. The dose was determined empirically based upon the disease progression rapidity. Furthermore, low doses of all other vitamins of the group b, including folic acid, 150 mg of magnesium citrate and 150 mg of magnesium malate, were associated to the treatment. The patients were evaluated with UPDRS (Unified Parkinson's Disease Rating Scale), scale validated for all Parkinson forms. Herein the scores of third portion (portion III) of this scale will be shown, illustrating the motor problems found by the examiner.
(§1) The diagnoses were made by Italian primary neurological centres based upon anamnestic, clinical, evolutionary, neuroradiological and neurophysiological data.

For assay [3], the system named is Multisystemic Atrophy (MSA) of Cerebellar Type (Type C). The following applies: for Improvement of motor symptoms: SARA, two months of therapy; for SARA scale after therapy: five 100 mg/ml vials intramuscularly per week plus low doses of other group b vitamins and magnesium, two months, scale 0-40. Here is the method:
We treated three patients affected by such pathology with five vials intramuscularly per week of vitamin B1. A vial included 100 mg/ml of thiamine. The injection was performed every morning for the first five days of the week. The dose was determined empirically based upon the disease progression rapidity.
Moreover, low doses of all other vitamins of group b, including folic acid, 150 mg of magnesium citrate and 150 mg of magnesium malate, were associated to the treatment.
The patients were evaluated with SARA (Scale for Assessment and Rating of Ataxia), scale validated for all disorders of cerebellar type. The score of this scale ranges 0 (absence of symptoms) to 40 (maximum deficit).
as §1

For the compound `Cc1ncc(C[n+]2csc(CCO)c2C)c(N)n1` [vitamin B1, thiamine], in assay [1] (at the dose of 750 mg per day orally, printed as within about 8 days), the “time from the beginning until the headache attacks wholly disappeared” value is recorded as at most 8 days. Moreover, the “effect of an attempt of interrupting the treatment” value in assay [1] (oral thiamine interrupted) was “quick re-appearance of headache episodes”. Besides, the “outcome of symptoms under continued treatment” value in assay [1] (oral thiamine, maintained by continuing the treatment (more than five months)) was “complete regression of the symptoms”. In assay [1] (thiamine orally, 250 mg increased by 250 mg every three days to 750 mg per day, after 15 days, before treatment 82, scale 28 (absence of symptoms) to 140), this compound came in with a CHQ after treatment of 28 scores. For the same compound, the “Improvement of motor symptoms” value came out at 20.3% in assay [2] (patient N1 (person two)); 19.9% in assay [2] (patient N2 (person seven)); 32.5% in assay [2] (patient N3 (person twelve)); 21.8% in assay [2] (patient N4); 26.6% in assay [2] (patient N5); 14.3% in assay [3] (patient N1 (person one)). Besides, the “Improvement of motor symptoms” value in assay [3] (patient N2 (person eight)) came out at 37.5%; in assay [3] (patient N3), 16.0%. Further, the “UPDRS portion III after therapy” value came to 25 scores in assay [2] (patient N1 (person two), before therapy 31); 30 scores in assay [2] (patient N2 (person seven), before therapy 37); 16 scores in assay [2] (patient N3 (person twelve), before therapy 23); 22 scores in assay [2] (patient N4, before therapy 28); 20 scores in assay [2] (patient N5, before therapy 28). Also, the “SARA scale after therapy” value in assay [3] (patient N1 (person one), before therapy 7) was 6 scores; in assay [3] (patient N2 (person eight), before therapy 8), 3 scores; in assay [3] (patient N3, before therapy 25), 21 scores.
